Laboratory results reported in US10077295B2, “Glycoproteins having lipid mobilizing properties and therapeutic uses thereof” (Aston University, priority 2010, dated 2018).

Legend:
adipocytes, BAT = assay: Expression of ZAG, HSL, UCP in adipose tissue/adipocytes of mice (5 day ZAG study); type: in vivo, mouse; conditions: ERK inhibitor added with ZAG
Description: Western Blot Analysis. Freshly excised gastrocnemius muscles were washed in PBS and lysed in PHOSPHOSAFE™ Extraction Reagent for 5 min at room temperature followed by sonication at 4° C. The lysate was cleared by centrifugation at 18,000 g for 5 min at 4° C. and samples of cytosolic protein (5 μg) were resolved on 12% sodium dodecyl sulfate-polyacrylamide gel electrophoresis at 180V for approximately 1 h. This was followed by transference to 0.45 μm nitrocellulose membranes, which were then blocked with 5% Marvel in Tris-buffered saline, pH 7.5, at 4° C. overnight. Both primary and secondary antibodies were used at a dilution of 1:1000 except anti-myosin (1:250). Incubation was for 1 h at room temperature, and development was by ECL. Blots were scanned by a densitometer to quantify differences.
A 5 day study was performed where ZAG was administered at 35 μg per day i.v. on a daily basis for 5 days. At the end of the experiment tissues were removed and blotted, or functional assays were carried out with isolated adipocytes. […] When ep adipocytes were prepared and maintained in tissue culture (RPMI 1640+10% FCS) ZAG expression was maintained for a further 3 days, even though no ZAG was added to the culture medium (FIG. 6B). […] In fact, as discussed above, too much ZAG is more likely to lead to resistance rather than an increased response.

human β2-AR = biological target: T1, human β2-AR (Homo sapiens, UniProt P07550); assay: Cyclic AMP production in CHO-K1 cells transfected with β2-AR; type: cell-based; conditions: CHO β2-AR, SR59230A 10 μM
T1 construct: host or cells: CHO-K1
T1 sequence (P07550 whole entry): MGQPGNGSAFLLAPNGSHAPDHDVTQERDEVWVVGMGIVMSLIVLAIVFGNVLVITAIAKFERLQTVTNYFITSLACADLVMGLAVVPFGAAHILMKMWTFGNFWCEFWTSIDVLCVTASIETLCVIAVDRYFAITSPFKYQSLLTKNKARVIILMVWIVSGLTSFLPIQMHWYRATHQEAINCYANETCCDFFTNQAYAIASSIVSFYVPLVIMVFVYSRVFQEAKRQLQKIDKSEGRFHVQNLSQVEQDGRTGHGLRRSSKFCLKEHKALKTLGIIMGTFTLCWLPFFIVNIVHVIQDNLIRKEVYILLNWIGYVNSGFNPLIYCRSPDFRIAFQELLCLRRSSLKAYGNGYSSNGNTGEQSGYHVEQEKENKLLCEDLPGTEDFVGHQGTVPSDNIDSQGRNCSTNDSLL
Description: (§1) Binding Studies and Cyclic AMP Determination. CHO-K1 cells transfected with the human β1- and β2-AR obtained from University of Nottingham, UK, while CHOK1 cells transfected with the β3-AR were obtained from Astra Zeneca, Macclesfield, Cheshire, UK. Gene expression was under the control of hygromycin, together with a β-gal reporter construct, selected for resistance to G418. They were maintained in DMEM supplemented with 2 mM glutamine, hygromycin B ([…]), G418 ([…]), and 10% FCS, under an atmosphere of 10% CO2 in air. To determine the effect of agonists on cyclic AMP production, cells were grown in 24-well plates containing 1 ml of nutrient medium.

[1] = test system: rat epididymal adipocytes; assay: Lipolytic activity in rat adipocytes; type: cell-based; conditions: rat epididymal adipocytes
Description: Lipolytic Activity in Rat Adipocytes—White adipocytes were prepared from finely minced epididymal adipose tissue of male Wistar rats (400 g) using collagenase digestion, as described (Beck S A, et al. Production of lipolytic and proteolytic factors by a murine tumor-producing cachexia in the host. Cancer Res 47:5919-5923, 1987). Lipolytic activity was determined by incubating 10^5-2×10^5 adipocytes for 2 h in 1 ml Krebs-Ringer bicarbonate buffer, pH 7.2, and the extent of lipolysis was determined by measuring the glycerol released (Wieland O. Glycerol UV method. Methods of Enzymatic Analysis, edited by Bergmeyer H U. Academic Press, London, pp 1404-1409, 1974). Spontaneous glycerol release was measured by incubating adipocytes alone. Lipolytic activity was expressed as μmol glycerol released/10^5 adipocytes/2 h.

β3-AR [2] = biological target: T2, β3-AR (Homo sapiens, UniProt P13945); assay: Cyclic AMP production in CHO-K1 cells transfected with β3-AR; type: cell-based; parameters: host or cells: CHO-K1; conditions: CHO β3-AR
T2 sequence (P13945 whole entry): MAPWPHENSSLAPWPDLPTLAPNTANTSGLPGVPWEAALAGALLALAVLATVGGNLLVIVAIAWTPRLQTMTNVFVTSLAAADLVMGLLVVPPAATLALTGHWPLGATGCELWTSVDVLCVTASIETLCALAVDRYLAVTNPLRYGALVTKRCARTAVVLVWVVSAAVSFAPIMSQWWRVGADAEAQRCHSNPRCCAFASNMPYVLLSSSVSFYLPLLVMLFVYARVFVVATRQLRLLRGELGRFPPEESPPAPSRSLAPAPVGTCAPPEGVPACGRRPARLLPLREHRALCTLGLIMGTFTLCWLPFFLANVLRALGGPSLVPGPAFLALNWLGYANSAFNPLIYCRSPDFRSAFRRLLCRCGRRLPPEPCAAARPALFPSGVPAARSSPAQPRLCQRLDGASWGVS
Description: as §1

murine myotubes = assay: Murine myotubes subjected to high glucose: protein degradation, protein synthesis, ROS, pPKR; type: cell-based, mouse; conditions: 10 or 25 mM glucose; ZAG 25 μg/ml
Description: This utilizes murine myotubes subjected to high concentrations of glucose (10 or 25 mM). […] However the SR compound (i.e., SR59230A) can also act as a β-agonist, which it seemed to do in these experiments.
It has been shown that formation of reactive oxygen species (ROS) is important in protein degradation induced by high glucose load. […] High glucose also induces activation (phosphorylation) of PKR (FIG. 22A) and the subsequent phosphorylation of eIF2α (FIG. 22B) as is seen in skeletal muscle of ob/ob mice, which was also attenuated by ZAG.

ob/ob mice [3] = assay: Oral (p.o.) administration of rhZAG to ob/ob mice; type: in vivo, mouse; conditions: 50 ug ZAG p.o. daily with propranolol
Description: 50 ug per day of rhZAG was administered p.o. to Aston ob/ob mice. Oral dosing was achieved by assuming 5 mL/day consumption of water, and adding ZAG to achieve 50 ug per day dose based on that assumption. No attempt was made to correct for variations of consumption on a given day.
Experiment One (8 Day Oral ZAG Study): 50 ug of ZAG was administered p.o. daily in drinking water.
Experiment Two (8 Day Oral ZAG Plus Propranolol Study): 50 ug of ZAG administered p.o. daily, with and without propranolol. Propanolol blocks all of the effects of ZAG including decrease in body weight and blood glucose in the tolerance test, also blocking the rise in body temperature and the rise in plasma mouse ZAG, confirming that this occurs through a beta adrenergic receptor. […] It appears to do this by preventing the rise in mouse ZAG in the serum after oral administration of the rhZAG.
Experiment Three (Oral Study): ZAG administered p.o. daily over an extended time frame, with a recovery group split from the treated group beginning at 30 days (data not shown).

ob/ob mice [4] = assay: ob/ob mice treated with ZAG i.v. with or without propanolol; type: in vivo, mouse; conditions: propanolol 40 mg kg−1 po daily
Description: Animals. […] Male mice (about 20 weeks of age) were grouped into three per cage and kept in an air conditioned room at 22±2° C., with ad libitum feeding of a rat and mouse breeding diet (Special Diet Services, Witham, UK) and tap water. Mice were administered ZAG (50 μg, i.v. in 100 μl PBS) or PBS daily with or without propanolol (40 mgkg^−1, po, daily) and body weight and food and water intake were determined, as well as urinary glucose excretion and body temperature, determined by the use of a rectal thermometer (RS Components, Northants, UK). A glucose tolerance test was performed on day 3. […] Blood samples were removed from the tail vein at 15, 30, 60 and 120 min after glucose administration and used for the measurements of glucose and insulin. At the end of the experiment the animals were terminated by cervical dislocation, tissues removed and rapidly frozen in liquid nitrogen, and maintained at −80° C.
To determine whether ZAG can increase insulin signalling the effect on Glut4 expression was determined.

β3-AR [5] = biological target: T2, β3-AR; conditions: high affinity binding site; cited from earlier work

## COc1cccc(-c2cc(=O)c3ccccc3o2)c1N [PD98059, reference compound]
adipocytes, BAT
  effect on ZAG-induced expression of phospho HSL: completely attenuated

## CCc1ccccc1OC[C@@H](O)CN[C@H]1CCCc2ccccc21 [SR59230A, reference compound]
Human β2-AR
  effect on isoprenaline-induced increase in cyclic AMP: attenuated
[1]
  effect on the lipolytic effect of ZAG: completely attenuated
β3-AR [2]; SR59230A 10 μM
  effect on isoprenaline-induced increase in cyclic AMP: attenuated
Murine myotubes
  effect on protein degradation stimulated by high glucose: attenuated

## CC(C)NCC(O)c1ccc(O)c(O)c1 (centres unmarked) [isoprenaline, reference compound]
β3-AR [2]; 10 μM
  cyclic AMP level: significant increases in cyclic AMP level

## CC(C)NCC(O)COc1cccc2ccccc12 (centres unmarked) [propanolol, propranolol]
ob/ob mice [3]
  effect on weight loss by oral ZAG: totally attenuates weight loss
ob/ob mice [4]
  effect on ZAG-induced changes in oral glucose tolerance test: blocked the reduction in peak plasma glucose levels
  effect on increased body temperature produced by ZAG: completely attenuated
ob/ob mice [4]; ZAG 50 μg iv daily
  effect on decrease in body weight produced by ZAG: completely attenuated

B1: LMF: lipid mobilizing factor of cancer cachexia, shown immunologically identical to ZAG (protein, UniProt P25311 21-298, looked up)
Zinc-alpha-2-glycoprotein: QENQDGRYSLTYIYTGLSKHVEDVPAFQALGSLNDLQFFRYNSKDRKSQPMGLWRQVEGMEDWKQDSQLQKAREDIFMETLKDIVEYYNDSNGSHVLQGRFGCEIENNRSSGAFWKYYYDGKDYIEFNKEIPAWVPFDPAAQITKQKWEAEPVYVQRAKAYLEEECPATLRKYLKYSKNILDRQDPPSVVVTSHQAPGEKKKLKCLAYDFYPGKIDVHWTRAGEVQEPELRGDVLHNGNGTYQSWVVVAVPPQDTAPYSCHVQHSSLAQPLVVPWEAS
β3-AR [5]
  Kd: 78 ± 4.5 nM
